The data set is described as follows: xn = mol fraction of the nth substance listed. The conditions noted are these: 101 kPa, Liquid, Vibrating tube method.

As usually defined, the mass density is mass per unit of volume.

± gives the expanded uncertainty stated by the source.

For `CC[N+](CC)(CC)CC.[Cl-]` [tetraethylammonium chloride] + OCCO, the mass density by setting is: (293.15 K, x1 = 0.3333) 1052.3 ± 1 kg/m3; (298.15 K, x1 = 0.3333) 1049.4 ± 1 kg/m3; (303.15 K, x1 = 0.3333) 1046.6 ± 1 kg/m3; (308.15 K, x1 = 0.3333) 1043.7 ± 1 kg/m3; (313.15 K, x1 = 0.3333) 1040.9 ± 1 kg/m3; (318.15 K, x1 = 0.3333) 1038.1 ± 1 kg/m3. In addition, the mass density reads like this: (323.15 K, x1 = 0.3333) 1035.3 ± 1 kg/m3; (328.15 K, x1 = 0.3333) 1032.5 ± 1 kg/m3; (333.15 K, x1 = 0.3333) 1029.7 ± 1 kg/m3; (338.15 K, x1 = 0.3333) 1026.9 ± 1 kg/m3; (343.15 K, x1 = 0.3333) 1024.1 ± 1 kg/m3.
Consider `CC[N+](CC)(CC)CC.[Cl-]` [tetraethylammonium chloride] + OCC(O)CO, for which the mass density runs as follows: (293.15 K, x1 = 0.3333) 1124 ± 1 kg/m3; (298.15 K, x1 = 0.3333) 1121 ± 1 kg/m3; (303.15 K, x1 = 0.3333) 1118.1 ± 1 kg/m3; (308.15 K, x1 = 0.3333) 1115.1 ± 1 kg/m3; (313.15 K, x1 = 0.3333) 1112.3 ± 1 kg/m3; (318.15 K, x1 = 0.3333) 1109.4 ± 1 kg/m3. The mass density runs as follows: (323.15 K, x1 = 0.3333) 1106.6 ± 1 kg/m3; (328.15 K, x1 = 0.3333) 1103.8 ± 1 kg/m3; (333.15 K, x1 = 0.3333) 1101 ± 1 kg/m3; (338.15 K, x1 = 0.3333) 1098.2 ± 1 kg/m3; (343.15 K, x1 = 0.3333) 1095.4 ± 1 kg/m3.
Consider `C[P+](c1ccccc1)(c1ccccc1)c1ccccc1.[Br-]` [methyltriphenylphosphonium bromide] + OCC(O)CO, for which the mass density worked out at 1295.8 ± 1.1 kg/m3 (298.15 K, x1 = 0.25); 1292.4 ± 1.1 kg/m3 (303.15 K, x1 = 0.25); 1288.9 ± 1.1 kg/m3 (308.15 K, x1 = 0.25); 1285.3 ± 1.1 kg/m3 (313.15 K, x1 = 0.25); 1281.7 ± 1.1 kg/m3 (318.15 K, x1 = 0.25); 1278.1 ± 1.1 kg/m3 (323.15 K, x1 = 0.25).
Take `C[P+](c1ccccc1)(c1ccccc1)c1ccccc1.[Br-]` [methyltriphenylphosphonium bromide] + OCCO: the mass density was 1249.1 ± 1.1 kg/m3 (298.15 K, x1 = 0.25); 1245.7 ± 1.1 kg/m3 (303.15 K, x1 = 0.25); 1242.2 ± 1.1 kg/m3 (308.15 K, x1 = 0.25); 1238.8 ± 1.1 kg/m3 (313.15 K, x1 = 0.25); 1235.4 ± 1.1 kg/m3 (318.15 K, x1 = 0.25); 1231.9 ± 1.1 kg/m3 (323.15 K, x1 = 0.25).

For the origin of these results see the NIST ThermoML archive (doi:10.1016/j.fluid.2018.03.018).
